# Assay results published in paper PMC9898036, “VIP152 is a selective CDK9 inhibitor with pre-clinical in vitro and in vivo efficacy in chronic lymphocytic leukemia” (Leukemia, 2022).
# Columns and labels:
# SIK2 = SIK2 (Homo sapiens, UniProt Q9H0K1); test: KINOMEscan: SIK2; format: binding; details: 100 nM, read-out: Percent Control
# YANK3 = YANK3 (Homo sapiens, UniProt Q86UX6); test: KINOMEscan: YANK3; format: binding; details: 100 nM, read-out: Percent Control
# TYRO3 = TYRO3 (Homo sapiens, UniProt Q06418); test: KINOMEscan: TYRO3; format: binding; details: 100 nM, read-out: Percent Control
# MST4 = MST4 (Homo sapiens, UniProt Q9P289); test: KINOMEscan: MST4; format: binding; details: 1000 nM, read-out: Percent Control
# RET(V804L) = RET(V804L) (Homo sapiens, UniProt P07949, V804L); test: KINOMEscan: RET(V804L); format: binding; details: 100 nM, read-out: Percent Control
# SBK1 = SBK1 (Homo sapiens, UniProt Q52WX2); test: KINOMEscan: SBK1; format: binding; details: 100 nM, read-out: Percent Control
# CSNK1G1 = CSNK1G1 (Homo sapiens, UniProt Q9HCP0); test: KINOMEscan: CSNK1G1; format: binding; details: 1000 nM, read-out: Percent Control
# MET = MET (Homo sapiens, UniProt P08581); test: KINOMEscan: MET; format: binding; details: 1000 nM, read-out: Percent Control
# AURKA = AURKA (Homo sapiens, UniProt O14965); test: KINOMEscan: AURKA; format: binding; details: 1000 nM, read-out: Percent Control
# SRPK1 = SRPK1 (Homo sapiens, UniProt Q96SB4); test: KINOMEscan: SRPK1; format: binding; details: 100 nM, read-out: Percent Control
# DRAK1 = DRAK1 (Homo sapiens, UniProt Q9UEE5); test: KINOMEscan: DRAK1; format: binding; details: 1000 nM, read-out: Percent Control
# CDKL1 = CDKL1 (Homo sapiens, UniProt Q00532); test: KINOMEscan: CDKL1; format: binding; details: 1000 nM, read-out: Percent Control
# [1] = biological target: CDK9 in complex with Cyclin T2 (Homo sapiens, UniProt P50750); test: NanoBRET target engagement assay (HEK293); format: cell-based
# Adenosine A3 = Adenosine A3 (Homo sapiens, UniProt P0DMS8); test: Eurofins Diversity Panel; format: binding; details: hum, Conc. 10 μM
# [2] = test system: Calcium Channel L-Type, Benzothiazepine; test: Eurofins Diversity Panel; format: binding; details: rat, Conc. 10 μM
# [3] = biological target: TYK2(JH1domain-catalytic) (Homo sapiens, UniProt P29597); test: KINOMEscan: TYK2(JH1domain-catalytic); format: binding; details: 100 nM, read-out: Percent Control
# TIE2 = TIE2 (Homo sapiens, UniProt Q02763); test: KINOMEscan: TIE2; format: binding; details: 100 nM, read-out: Percent Control
# ERBB4 = ERBB4 (Homo sapiens, UniProt Q15303); test: KINOMEscan: ERBB4; format: binding; details: 1000 nM, read-out: Percent Control
# HPK1 = HPK1 (Homo sapiens, UniProt Q92918); test: KINOMEscan: HPK1; format: binding; details: 1000 nM, read-out: Percent Control
# Adrenergic α1A = Adrenergic α1A (Rattus norvegicus, UniProt P43140); test: Eurofins Diversity Panel; format: binding; details: Conc. 10 μM
# SNRK = SNRK (Homo sapiens, UniProt Q9NRH2); test: KINOMEscan: SNRK; format: binding; details: 100 nM, read-out: Percent Control
# [4] = biological target: Platelet Activating Factor (PAF) (Homo sapiens, UniProt P25105); test: Eurofins Diversity Panel; format: binding; details: hum, Conc. 10 μM
# [5] = biological target: RSK3(Kin.Dom.2-C-terminal) (Homo sapiens, UniProt Q15349); test: KINOMEscan: RSK3(Kin.Dom.2-C-terminal); format: binding; details: 100 nM, read-out: Percent Control
# CAMK4 = CAMK4 (Homo sapiens, UniProt Q16566); test: KINOMEscan: CAMK4; format: binding; details: 1000 nM, read-out: Percent Control
# Calcium Channel N-Type = Calcium Channel N-Type (Rattus norvegicus, UniProt Q02294); test: Eurofins Diversity Panel; format: binding; details: Conc. 10 μM
# STK35 = STK35 (Homo sapiens, UniProt Q8TDR2); test: KINOMEscan: STK35; format: binding; details: 100 nM, read-out: Percent Control
# ALK(C1156Y) = ALK(C1156Y) (Homo sapiens, UniProt Q9UM73, C1156Y); test: KINOMEscan: ALK(C1156Y); format: binding; details: 1000 nM, read-out: Percent Control
# MERTK = MERTK (Homo sapiens, UniProt Q12866); test: KINOMEscan: MERTK; format: binding; details: 1000 nM, read-out: Percent Control
# TNIK = TNIK (Homo sapiens, UniProt Q9UKE5); test: KINOMEscan: TNIK; format: binding; details: 100 nM, read-out: Percent Control
# Estrogen Erα = Estrogen Erα (Homo sapiens, UniProt P03372); test: Eurofins Diversity Panel; format: binding; details: hum, Conc. 10 μM
# ACVR2A = ACVR2A (Homo sapiens, UniProt P27037); test: KINOMEscan: ACVR2A; format: binding; details: 1000 nM, read-out: Percent Control
# WNK1 = WNK1 (Homo sapiens, UniProt Q9H4A3); test: KINOMEscan: WNK1; format: binding; details: 100 nM, read-out: Percent Control
# [6] = biological target: RSK3(Kin.Dom.1-N-terminal) (Homo sapiens, UniProt Q15349); test: KINOMEscan: RSK3(Kin.Dom.1-N-terminal); format: binding; details: 100 nM, read-out: Percent Control
# LTK = LTK (Homo sapiens, UniProt P29376); test: KINOMEscan: LTK; format: binding; details: 1000 nM, read-out: Percent Control
# SGK2 = SGK2 (Homo sapiens, UniProt Q9HBY8); test: KINOMEscan: SGK2; format: binding; details: 100 nM, read-out: Percent Control
# RIPK1 = RIPK1 (Homo sapiens, UniProt Q13546); test: KINOMEscan: RIPK1; format: binding; details: 100 nM, read-out: Percent Control
# [7] = biological target: Serotonin (5-Hydroxytryptamine) 5-HT3) (Homo sapiens, UniProt P46098); test: Eurofins Diversity Panel; format: binding; details: hum, Conc. 10 μM
# ERK1 = ERK1 (Homo sapiens, UniProt P27361); test: KINOMEscan: ERK1; format: binding; details: 1000 nM, read-out: Percent Control
# RSK3(Kin.Dom.1-N-terminal), sequence (Q15349 1-388 limits assumed): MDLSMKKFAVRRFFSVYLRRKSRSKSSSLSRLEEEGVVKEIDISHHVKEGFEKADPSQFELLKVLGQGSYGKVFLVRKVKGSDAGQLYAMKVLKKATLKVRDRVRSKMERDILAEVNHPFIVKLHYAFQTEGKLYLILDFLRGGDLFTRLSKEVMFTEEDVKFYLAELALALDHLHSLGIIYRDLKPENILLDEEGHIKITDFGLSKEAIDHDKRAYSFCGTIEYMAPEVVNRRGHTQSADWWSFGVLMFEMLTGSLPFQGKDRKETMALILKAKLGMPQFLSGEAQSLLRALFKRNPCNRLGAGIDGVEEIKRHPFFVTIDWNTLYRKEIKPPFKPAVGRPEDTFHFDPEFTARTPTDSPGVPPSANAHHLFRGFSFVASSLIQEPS
# YANK3, sequence (Q86UX6 whole entry): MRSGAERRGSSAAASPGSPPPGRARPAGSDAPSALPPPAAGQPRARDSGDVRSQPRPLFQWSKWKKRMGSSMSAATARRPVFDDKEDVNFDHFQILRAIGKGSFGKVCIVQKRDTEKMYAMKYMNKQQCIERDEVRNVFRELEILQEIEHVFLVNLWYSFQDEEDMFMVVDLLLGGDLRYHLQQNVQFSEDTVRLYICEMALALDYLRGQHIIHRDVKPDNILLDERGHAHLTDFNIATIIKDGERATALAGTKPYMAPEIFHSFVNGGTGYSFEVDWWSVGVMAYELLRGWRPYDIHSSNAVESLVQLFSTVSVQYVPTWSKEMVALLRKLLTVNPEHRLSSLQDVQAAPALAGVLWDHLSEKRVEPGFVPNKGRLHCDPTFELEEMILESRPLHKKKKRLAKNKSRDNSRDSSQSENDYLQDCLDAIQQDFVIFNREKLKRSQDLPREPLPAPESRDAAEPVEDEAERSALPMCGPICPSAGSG
# Serotonin (5-Hydroxytryptamine) 5-HT3), sequence (P46098 24-478): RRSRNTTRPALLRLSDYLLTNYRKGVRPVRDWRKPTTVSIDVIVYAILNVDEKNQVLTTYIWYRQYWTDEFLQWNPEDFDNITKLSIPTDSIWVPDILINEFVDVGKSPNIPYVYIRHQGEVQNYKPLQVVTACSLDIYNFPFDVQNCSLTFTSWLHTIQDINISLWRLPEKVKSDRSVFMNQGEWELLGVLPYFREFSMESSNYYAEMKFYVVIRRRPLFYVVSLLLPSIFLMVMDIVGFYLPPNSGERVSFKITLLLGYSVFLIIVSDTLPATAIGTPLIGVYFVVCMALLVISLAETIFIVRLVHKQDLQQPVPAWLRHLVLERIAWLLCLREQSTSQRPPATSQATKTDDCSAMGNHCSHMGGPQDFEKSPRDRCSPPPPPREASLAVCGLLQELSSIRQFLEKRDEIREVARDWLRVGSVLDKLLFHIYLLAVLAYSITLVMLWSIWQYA
# SNRK, sequence (Q9NRH2 whole entry): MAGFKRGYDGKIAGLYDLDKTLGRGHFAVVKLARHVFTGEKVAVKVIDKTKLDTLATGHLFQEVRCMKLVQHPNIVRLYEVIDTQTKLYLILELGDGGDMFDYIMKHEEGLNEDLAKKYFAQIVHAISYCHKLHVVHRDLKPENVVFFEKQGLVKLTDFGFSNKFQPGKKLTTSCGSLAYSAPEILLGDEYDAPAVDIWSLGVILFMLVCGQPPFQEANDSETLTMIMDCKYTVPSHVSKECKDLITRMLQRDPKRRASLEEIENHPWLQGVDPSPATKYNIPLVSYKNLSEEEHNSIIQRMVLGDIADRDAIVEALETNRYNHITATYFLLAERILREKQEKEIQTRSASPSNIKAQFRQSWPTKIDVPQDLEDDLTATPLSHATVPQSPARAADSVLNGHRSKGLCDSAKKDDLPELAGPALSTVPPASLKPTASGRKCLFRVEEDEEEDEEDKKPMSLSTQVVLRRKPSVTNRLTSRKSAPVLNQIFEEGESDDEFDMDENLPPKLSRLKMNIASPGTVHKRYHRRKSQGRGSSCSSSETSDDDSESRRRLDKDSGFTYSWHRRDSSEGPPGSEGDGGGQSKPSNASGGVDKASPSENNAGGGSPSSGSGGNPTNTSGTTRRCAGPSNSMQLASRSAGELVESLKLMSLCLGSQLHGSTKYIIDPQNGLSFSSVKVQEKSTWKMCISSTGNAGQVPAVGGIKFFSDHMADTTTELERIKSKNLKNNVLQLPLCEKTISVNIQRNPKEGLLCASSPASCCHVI
# Platelet Activating Factor (PAF), sequence (P25105 whole entry): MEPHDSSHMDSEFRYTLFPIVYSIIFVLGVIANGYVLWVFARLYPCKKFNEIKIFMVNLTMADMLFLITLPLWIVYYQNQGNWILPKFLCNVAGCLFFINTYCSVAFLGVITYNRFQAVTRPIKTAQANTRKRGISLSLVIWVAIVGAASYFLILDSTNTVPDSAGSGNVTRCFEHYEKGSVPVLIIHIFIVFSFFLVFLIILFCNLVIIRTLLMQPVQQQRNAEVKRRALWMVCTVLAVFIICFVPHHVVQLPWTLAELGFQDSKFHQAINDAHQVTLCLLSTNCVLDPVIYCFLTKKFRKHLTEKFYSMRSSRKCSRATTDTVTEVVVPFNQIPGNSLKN
# ACVR2A, sequence (P27037 20-513): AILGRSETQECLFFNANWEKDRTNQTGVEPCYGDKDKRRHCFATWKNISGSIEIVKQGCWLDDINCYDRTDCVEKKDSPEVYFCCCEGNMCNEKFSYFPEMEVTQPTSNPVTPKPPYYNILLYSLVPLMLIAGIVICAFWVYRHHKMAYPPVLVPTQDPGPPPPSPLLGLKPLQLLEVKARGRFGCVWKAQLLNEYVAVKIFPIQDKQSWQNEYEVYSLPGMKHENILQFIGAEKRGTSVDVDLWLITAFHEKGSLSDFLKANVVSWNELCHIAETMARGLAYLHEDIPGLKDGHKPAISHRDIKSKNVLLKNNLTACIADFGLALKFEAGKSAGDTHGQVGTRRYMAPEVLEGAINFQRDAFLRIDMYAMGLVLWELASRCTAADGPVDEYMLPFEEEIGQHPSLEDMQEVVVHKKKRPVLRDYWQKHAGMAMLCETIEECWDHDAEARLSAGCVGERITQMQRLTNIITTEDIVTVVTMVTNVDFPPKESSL
# CDKL1, sequence (Q00532 whole entry): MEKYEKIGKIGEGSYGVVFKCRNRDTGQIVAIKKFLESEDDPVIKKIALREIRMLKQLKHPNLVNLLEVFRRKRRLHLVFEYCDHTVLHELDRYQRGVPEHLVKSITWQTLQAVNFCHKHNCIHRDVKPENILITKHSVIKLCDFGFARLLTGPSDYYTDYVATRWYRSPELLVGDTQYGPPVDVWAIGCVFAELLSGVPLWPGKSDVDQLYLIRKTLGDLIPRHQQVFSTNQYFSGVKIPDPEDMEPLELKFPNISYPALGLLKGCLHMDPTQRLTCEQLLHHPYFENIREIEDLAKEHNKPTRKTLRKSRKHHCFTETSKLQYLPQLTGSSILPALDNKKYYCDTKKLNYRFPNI
# MERTK, sequence (Q12866 21-999): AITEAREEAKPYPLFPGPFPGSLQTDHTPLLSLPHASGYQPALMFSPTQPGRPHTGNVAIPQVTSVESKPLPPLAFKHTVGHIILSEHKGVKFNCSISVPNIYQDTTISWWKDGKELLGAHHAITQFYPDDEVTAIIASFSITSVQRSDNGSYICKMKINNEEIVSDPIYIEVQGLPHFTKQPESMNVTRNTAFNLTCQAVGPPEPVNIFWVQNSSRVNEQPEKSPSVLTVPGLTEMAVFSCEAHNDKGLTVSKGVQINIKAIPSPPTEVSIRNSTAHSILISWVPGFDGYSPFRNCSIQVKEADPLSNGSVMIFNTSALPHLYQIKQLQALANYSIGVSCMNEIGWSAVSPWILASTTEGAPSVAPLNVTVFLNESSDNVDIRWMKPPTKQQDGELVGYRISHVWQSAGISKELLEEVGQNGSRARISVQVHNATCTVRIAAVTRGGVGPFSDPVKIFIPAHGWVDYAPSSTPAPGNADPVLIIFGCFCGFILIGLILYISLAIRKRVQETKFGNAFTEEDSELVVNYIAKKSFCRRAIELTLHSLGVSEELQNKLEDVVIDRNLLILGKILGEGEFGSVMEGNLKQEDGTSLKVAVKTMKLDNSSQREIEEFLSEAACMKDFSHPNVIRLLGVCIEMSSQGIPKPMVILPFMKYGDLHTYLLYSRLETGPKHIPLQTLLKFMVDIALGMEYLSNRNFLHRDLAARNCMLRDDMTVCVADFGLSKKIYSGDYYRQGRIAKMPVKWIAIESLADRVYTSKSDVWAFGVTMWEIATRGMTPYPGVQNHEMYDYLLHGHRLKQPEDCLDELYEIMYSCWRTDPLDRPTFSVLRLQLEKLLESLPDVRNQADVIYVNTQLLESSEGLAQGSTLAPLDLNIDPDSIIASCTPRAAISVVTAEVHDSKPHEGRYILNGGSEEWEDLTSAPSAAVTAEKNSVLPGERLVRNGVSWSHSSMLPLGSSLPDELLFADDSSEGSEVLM
# CAMK4, sequence (Q16566 whole entry): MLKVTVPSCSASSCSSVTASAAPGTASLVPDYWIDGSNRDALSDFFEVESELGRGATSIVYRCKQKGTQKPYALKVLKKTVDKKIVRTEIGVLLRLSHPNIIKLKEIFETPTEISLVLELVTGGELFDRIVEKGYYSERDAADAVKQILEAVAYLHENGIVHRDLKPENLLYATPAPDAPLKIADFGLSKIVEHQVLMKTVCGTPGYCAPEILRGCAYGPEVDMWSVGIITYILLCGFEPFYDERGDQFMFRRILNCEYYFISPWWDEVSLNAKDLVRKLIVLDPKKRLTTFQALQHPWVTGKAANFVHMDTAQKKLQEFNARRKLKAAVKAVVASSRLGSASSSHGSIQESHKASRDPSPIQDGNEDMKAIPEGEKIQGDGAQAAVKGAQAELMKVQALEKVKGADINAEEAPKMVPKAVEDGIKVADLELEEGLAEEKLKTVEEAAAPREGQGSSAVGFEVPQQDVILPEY
compound,measurement,setting,value
COc1cc(F)ccc1-c1cc(Nc2cc(CS(C)(=N)=O)ccn2)ncc1F (centres unmarked) [VIP152],remaining binding at 0.1 µM,SIK2,63%
same,remaining binding at 0.1 µM,YANK3,99%
same,remaining binding at 0.1 µM,TYRO3,100%
same,remaining binding at 1 µM,MST4,89%
same,remaining binding at 0.1 µM,RET(V804L),100%
same,remaining binding at 0.1 µM,SBK1,95%
same,remaining binding at 1 µM,CSNK1G1,91%
same,remaining binding at 1 µM,MET,26%
same,remaining binding at 1 µM,AURKA,41%
same,remaining binding at 0.1 µM,SRPK1,100%
same,remaining binding at 1 µM,DRAK1,71%
same,remaining binding at 1 µM,CDKL1,63%
same,potency versus the other inhibitors,[1],higher potency
same,inhibition at 10 µM,Adenosine A3,43%
same,% Inh.,[2],16%
same,remaining binding at 0.1 µM,[3],100%
same,remaining binding at 0.1 µM,TIE2,100%
same,remaining binding at 1 µM,ERBB4,88%
same,remaining binding at 1 µM,HPK1,85%
same,inhibition at 10 µM,Adrenergic α1A,34%
same,remaining binding at 0.1 µM,SNRK,100%
same,inhibition at 10 µM,[4],6%
same,remaining binding at 0.1 µM,[5],100%
same,remaining binding at 1 µM,CAMK4,100%
same,inhibition at 10 µM,Calcium Channel N-Type,4%
same,remaining binding at 0.1 µM,STK35,100%
same,remaining binding at 1 µM,ALK(C1156Y),71%
same,remaining binding at 1 µM,MERTK,58%
same,remaining binding at 0.1 µM,TNIK,100%
same,inhibition at 10 µM,Estrogen Erα,6%
same,remaining binding at 1 µM,ACVR2A,75%
same,remaining binding at 0.1 µM,WNK1,100%
same,remaining binding at 0.1 µM,[6],100%
same,remaining binding at 1 µM,LTK,100%
same,remaining binding at 0.1 µM,SGK2,100%
same,remaining binding at 0.1 µM,RIPK1,100%
same,inhibition at 10 µM,[7],-3%
same,remaining binding at 1 µM,ERK1,82%
